Measurements reported in patent US9340590B2 (priority 2011, dated 2016).
Like-named read-outs stand apart in the source and are kept apart here. Positions of bridges follow the written chain, without caps; N, C: chain ends. Non-standard residues stand in square brackets, D forms with d. Residues, ends and D or L forms follow the SMILES beside them. 1Nal = N[C@@H](Cc1cccc2ccccc12)C(=O)O

How the values were obtained:
Assay in all cases: cell-based
hNav1.5 = hNav1.5 (Homo sapiens, UniProt Q14524); settings: IonWorks Quattro, read-out: IWQ Use Nav1.5
hNav1.7 = hNav1.7 (Homo sapiens, UniProt Q15858); format: cell-based; settings: IonWorks Quattro, read-out: IWQ Use Nav1.7
hNav1.3 = hNav1.3 (Homo sapiens, UniProt Q9NY46); settings: IonWorks Quattro, read-out: IWQ Use Nav1.3
[1] = use-dependent protocol, hNav1.5
[2] = use-dependent protocol, hNav1.7
[3] = use-dependent protocol, hNav1.3

Sequence of hNav1.7 (Q15858 whole entry, looked up): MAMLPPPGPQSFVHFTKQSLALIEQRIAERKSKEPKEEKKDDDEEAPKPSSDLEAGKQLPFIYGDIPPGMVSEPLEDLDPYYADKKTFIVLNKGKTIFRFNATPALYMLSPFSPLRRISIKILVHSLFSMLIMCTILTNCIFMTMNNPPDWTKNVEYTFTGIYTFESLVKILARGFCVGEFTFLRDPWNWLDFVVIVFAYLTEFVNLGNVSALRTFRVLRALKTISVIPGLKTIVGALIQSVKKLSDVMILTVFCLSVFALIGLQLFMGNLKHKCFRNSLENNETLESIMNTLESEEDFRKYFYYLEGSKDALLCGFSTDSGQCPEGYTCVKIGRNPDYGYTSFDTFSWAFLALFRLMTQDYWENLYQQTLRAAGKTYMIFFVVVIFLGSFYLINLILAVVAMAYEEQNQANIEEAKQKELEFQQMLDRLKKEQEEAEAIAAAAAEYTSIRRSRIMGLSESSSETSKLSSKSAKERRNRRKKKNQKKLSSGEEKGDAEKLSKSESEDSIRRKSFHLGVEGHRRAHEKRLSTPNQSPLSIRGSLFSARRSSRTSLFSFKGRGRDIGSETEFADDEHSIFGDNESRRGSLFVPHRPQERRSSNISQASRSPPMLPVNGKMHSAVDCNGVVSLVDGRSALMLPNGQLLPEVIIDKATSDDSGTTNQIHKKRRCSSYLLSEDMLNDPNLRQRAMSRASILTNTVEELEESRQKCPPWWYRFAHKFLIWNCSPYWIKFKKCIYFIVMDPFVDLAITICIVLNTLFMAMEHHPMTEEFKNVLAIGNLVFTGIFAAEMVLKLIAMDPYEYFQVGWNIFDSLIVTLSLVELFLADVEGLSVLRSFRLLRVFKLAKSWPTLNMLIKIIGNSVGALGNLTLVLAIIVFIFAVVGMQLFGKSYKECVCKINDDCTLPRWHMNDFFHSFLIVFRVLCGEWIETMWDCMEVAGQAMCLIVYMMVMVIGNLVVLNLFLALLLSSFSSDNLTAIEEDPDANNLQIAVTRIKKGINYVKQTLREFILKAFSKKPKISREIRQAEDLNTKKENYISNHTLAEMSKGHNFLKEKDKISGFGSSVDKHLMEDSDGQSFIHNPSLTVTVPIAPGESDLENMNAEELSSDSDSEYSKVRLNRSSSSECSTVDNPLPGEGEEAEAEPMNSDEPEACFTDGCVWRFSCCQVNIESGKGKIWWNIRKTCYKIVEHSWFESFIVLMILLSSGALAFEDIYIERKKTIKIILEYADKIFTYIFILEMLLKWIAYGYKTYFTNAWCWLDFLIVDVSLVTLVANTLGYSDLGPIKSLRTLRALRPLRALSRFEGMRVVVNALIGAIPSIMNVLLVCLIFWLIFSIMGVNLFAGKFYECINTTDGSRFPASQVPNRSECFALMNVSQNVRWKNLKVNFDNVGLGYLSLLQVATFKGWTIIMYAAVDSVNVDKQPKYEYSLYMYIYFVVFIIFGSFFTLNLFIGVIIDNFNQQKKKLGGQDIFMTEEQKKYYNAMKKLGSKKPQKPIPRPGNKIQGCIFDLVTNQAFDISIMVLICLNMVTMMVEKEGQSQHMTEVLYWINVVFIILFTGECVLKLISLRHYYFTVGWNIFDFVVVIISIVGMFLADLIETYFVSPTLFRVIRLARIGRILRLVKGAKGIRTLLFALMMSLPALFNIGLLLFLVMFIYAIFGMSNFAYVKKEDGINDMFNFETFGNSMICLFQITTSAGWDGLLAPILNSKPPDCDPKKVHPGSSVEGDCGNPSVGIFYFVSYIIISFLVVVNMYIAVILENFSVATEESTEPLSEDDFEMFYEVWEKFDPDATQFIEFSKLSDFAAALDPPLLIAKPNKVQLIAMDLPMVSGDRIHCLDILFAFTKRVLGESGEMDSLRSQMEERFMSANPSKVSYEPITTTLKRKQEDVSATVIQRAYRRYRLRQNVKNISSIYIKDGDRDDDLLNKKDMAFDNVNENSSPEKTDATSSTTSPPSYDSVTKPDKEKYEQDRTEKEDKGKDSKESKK
Sequence of hNav1.3 (Q9NY46 whole entry, looked up): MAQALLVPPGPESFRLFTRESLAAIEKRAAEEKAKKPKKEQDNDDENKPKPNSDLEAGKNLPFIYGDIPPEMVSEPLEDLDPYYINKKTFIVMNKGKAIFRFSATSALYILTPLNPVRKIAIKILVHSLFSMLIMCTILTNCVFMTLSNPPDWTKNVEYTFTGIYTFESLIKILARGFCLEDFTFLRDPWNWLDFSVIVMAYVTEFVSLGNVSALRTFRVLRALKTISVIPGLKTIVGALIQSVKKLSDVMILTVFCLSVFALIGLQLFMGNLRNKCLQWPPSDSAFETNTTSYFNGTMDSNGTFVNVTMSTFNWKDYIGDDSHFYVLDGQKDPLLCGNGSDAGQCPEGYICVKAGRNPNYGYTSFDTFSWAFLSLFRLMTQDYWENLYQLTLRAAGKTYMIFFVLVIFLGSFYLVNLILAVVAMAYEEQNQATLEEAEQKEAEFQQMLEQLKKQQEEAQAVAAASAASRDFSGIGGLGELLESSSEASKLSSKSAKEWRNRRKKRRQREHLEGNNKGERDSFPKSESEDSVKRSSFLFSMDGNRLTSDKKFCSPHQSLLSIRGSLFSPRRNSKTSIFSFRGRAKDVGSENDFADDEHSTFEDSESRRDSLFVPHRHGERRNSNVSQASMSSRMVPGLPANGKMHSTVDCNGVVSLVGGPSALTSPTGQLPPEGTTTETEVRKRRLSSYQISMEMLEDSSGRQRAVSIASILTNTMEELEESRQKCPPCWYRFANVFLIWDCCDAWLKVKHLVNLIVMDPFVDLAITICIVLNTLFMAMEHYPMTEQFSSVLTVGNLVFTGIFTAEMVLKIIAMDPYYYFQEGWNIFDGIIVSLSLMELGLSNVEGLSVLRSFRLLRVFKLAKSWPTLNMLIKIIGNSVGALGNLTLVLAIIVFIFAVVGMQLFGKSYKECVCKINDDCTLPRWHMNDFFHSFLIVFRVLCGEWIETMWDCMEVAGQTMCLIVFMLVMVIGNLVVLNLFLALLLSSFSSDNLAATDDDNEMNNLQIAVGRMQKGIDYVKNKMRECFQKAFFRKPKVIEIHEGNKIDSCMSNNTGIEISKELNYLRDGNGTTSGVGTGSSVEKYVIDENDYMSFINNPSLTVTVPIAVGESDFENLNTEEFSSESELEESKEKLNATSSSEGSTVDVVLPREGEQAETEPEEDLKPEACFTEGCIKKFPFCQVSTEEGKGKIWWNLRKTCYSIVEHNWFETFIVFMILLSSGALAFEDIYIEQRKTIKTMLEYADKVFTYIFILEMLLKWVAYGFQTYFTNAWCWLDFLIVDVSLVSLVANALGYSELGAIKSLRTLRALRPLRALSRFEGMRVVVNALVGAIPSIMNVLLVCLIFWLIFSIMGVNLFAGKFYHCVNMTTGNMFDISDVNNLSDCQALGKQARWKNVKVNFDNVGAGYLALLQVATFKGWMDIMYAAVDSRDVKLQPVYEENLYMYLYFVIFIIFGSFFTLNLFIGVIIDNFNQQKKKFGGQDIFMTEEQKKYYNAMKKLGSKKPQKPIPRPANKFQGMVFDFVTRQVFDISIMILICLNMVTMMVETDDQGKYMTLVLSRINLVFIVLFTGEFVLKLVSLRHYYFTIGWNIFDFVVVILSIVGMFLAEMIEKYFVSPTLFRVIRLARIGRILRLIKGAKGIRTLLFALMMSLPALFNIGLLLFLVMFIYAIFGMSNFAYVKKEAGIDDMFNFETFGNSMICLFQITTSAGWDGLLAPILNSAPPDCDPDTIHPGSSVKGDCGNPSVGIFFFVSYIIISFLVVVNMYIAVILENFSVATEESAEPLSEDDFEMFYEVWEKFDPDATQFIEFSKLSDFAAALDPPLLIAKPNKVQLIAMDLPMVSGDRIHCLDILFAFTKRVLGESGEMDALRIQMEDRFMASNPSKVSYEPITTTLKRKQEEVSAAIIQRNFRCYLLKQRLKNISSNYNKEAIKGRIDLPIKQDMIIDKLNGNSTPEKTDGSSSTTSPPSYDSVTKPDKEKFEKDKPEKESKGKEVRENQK

CC[C@H](C)[C@@H]1NC(=O)[C@@H]2CSSC[C@@H]3NC(=O)[C@H](C(C)C)NC(=O)[C@H](CC(C)C)NC(=O)[C@H](CC(N)=O)NC(=O)[C@@H]4CCCN4C(=O)[C@H](CCCNC(=N)N)NC(=O)[C@H](CSSC[C@H](NC(=O)[C@@H](N)CC(=O)O)C(=O)N[C@@H](CC(C)C)C(=O)NCC(=O)N[C@@H](C)C(=O)N[C@@H](Cc4ccccc4)C(=O)N[C@@H](CCCNC(=N)N)C(=O)N[C@@H](CCCCN)C(=O)N2)NC(=O)[C@H](CSSC[C@@H](C(=O)N[C@@H](CCCCN)C(=O)N[C@@H](Cc2ccc(O)cc2)C(=O)N[C@H](C(=O)N[C@@H](Cc2ccccc2)C(=O)O)C(C)C)NC(=O)[C@H](Cc2c[nH]c4ccccc24)NC(=O)[C@H](CC(=O)O)NC(=O)[C@H](Cc2c[nH]cn2)NC(=O)[C@H]([C@@H](C)O)NC(=O)[C@H](CCCNC(=N)N)NC(=O)[C@H](CO)NC3=O)NC(=O)[C@H](CCCCN)NC(=O)[C@H](CC(=O)O)NC(=O)[C@H](CC(N)=O)NC(=O)[C@H](CC(=O)O)NC(=O)[C@@H]2CCCN2C1=O [compound 825] (H-DCLGAFRKCIPDNDKCCRPNLVCSRTHDWCKYVF-OH; disulfide 2-17, 9-23, 16-30)
IC50 (hNav1.5; use-dependent block, hNav1.5): > 5 µM | IC50 (hNav1.7; use-dependent block, hNav1.7): > 5 µM | IC50 (hNav1.3; use-dependent block, hNav1.3): > 5 µM

CC[C@H](C)[C@@H]1NC(=O)[C@@H]2CSSC[C@@H]3NC(=O)[C@H](C(C)C)NC(=O)[C@H](CC(C)C)NC(=O)[C@H](CC(N)=O)NC(=O)[C@@H]4CCCN4C(=O)[C@H](CCCNC(=N)N)NC(=O)[C@H](CSSC[C@H](NC(=O)[C@@H](N)CC(=O)O)C(=O)N[C@@H](CC(C)C)C(=O)NCC(=O)N[C@@H](C)C(=O)N[C@@H](CC[S+](C)[O-])C(=O)N[C@@H](CCCNC(=N)N)C(=O)N[C@@H](CCCCN)C(=O)N2)NC(=O)[C@H](CSSC[C@@H](C(=O)N[C@@H](CCCCN)C(=O)N[C@@H](Cc2ccc(O)cc2)C(=O)N[C@H](C(=O)N[C@@H](Cc2ccccc2)C(N)=O)C(C)C)NC(=O)[C@H](Cc2c[nH]c4ccccc24)NC(=O)[C@H](CCCCN)NC(=O)[C@H](Cc2c[nH]cn2)NC(=O)[C@H]([C@@H](C)O)NC(=O)[C@H](CCCNC(=N)N)NC(=O)[C@H](CO)NC3=O)NC(=O)[C@H](CCCCN)NC(=O)[C@H](CC(=O)O)NC(=O)[C@H](CC(N)=O)NC(=O)[C@H](CC(=O)O)NC(=O)[C@@H]2CCCN2C1=O (single isomer, unassigned) [compound 792]
IC50 (hNav1.5; use-dependent block, hNav1.5): 49.8 µM | IC50 (hNav1.7; use-dependent block, hNav1.7): > 5 µM | IC50 (hNav1.3; use-dependent block, hNav1.3): > 5 µM

CC[C@H](C)[C@@H]1NC(=O)[C@@H]2CSSC[C@@H]3NC(=O)[C@H](C(C)C)NC(=O)[C@H](CC(C)C)NC(=O)[C@H](CC(N)=O)NC(=O)[C@@H]4CCCN4C(=O)[C@H](CCCNC(=N)N)NC(=O)[C@H](CSSC[C@H](NC(=O)[C@@H](N)CC(=O)O)C(=O)N[C@@H](CC(C)C)C(=O)NCC(=O)N[C@@H](C)C(=O)N[C@@H](Cc4ccccc4)C(=O)N[C@@H](CCCNC(=N)N)C(=O)N[C@@H](CCCCN)C(=O)N2)NC(=O)[C@H](CSSC[C@@H](C(=O)N[C@@H](CCCCN)C(=O)N[C@@H](Cc2ccc(O)cc2)C(=O)N[C@H](C(=O)N[C@@H](Cc2ccccc2)C(=O)O)C(C)C)NC(=O)[C@H](Cc2c[nH]c4ccccc24)NC(=O)[C@H](Cc2c[nH]cn2)NC(=O)[C@H](Cc2c[nH]cn2)NC(=O)[C@H]([C@@H](C)O)NC(=O)[C@H](CCCNC(=N)N)NC(=O)[C@H](CO)NC3=O)NC(=O)[C@H](CCCCN)NC(=O)[C@H](CC(=O)O)NC(=O)[C@H](CC(N)=O)NC(=O)[C@H](CC(=O)O)NC(=O)[C@@H]2CCCN2C1=O [compound 828] (H-DCLGAFRKCIPDNDKCCRPNLVCSRTHHWCKYVF-OH; disulfide 2-17, 9-23, 16-30)
IC50 (hNav1.5; use-dependent block, hNav1.5): > 5 µM | IC50 (hNav1.7; use-dependent block, hNav1.7): > 5 µM | IC50 (hNav1.3; use-dependent block, hNav1.3): > 5 µM

CC[C@H](C)[C@@H]1NC(=O)[C@@H]2CSSC[C@@H]3NC(=O)[C@H](C(C)C)NC(=O)[C@H](CC(C)C)NC(=O)[C@H](CC(N)=O)NC(=O)[C@@H]4CCCN4C(=O)[C@H](CCCNC(=N)N)NC(=O)[C@H](CSSC[C@H](NC(=O)[C@@H](N)CC(=O)O)C(=O)N[C@@H](CC(C)C)C(=O)NCC(=O)N[C@@H](Cc4ccc(C(=O)c5ccccc5)cc4)C(=O)N[C@@H](CC(C)C)C(=O)N[C@@H](CCCNC(=N)N)C(=O)N[C@@H](CCCCN)C(=O)N2)NC(=O)[C@H](CSSC[C@@H](C(=O)N[C@@H](CCCCN)C(=O)N[C@@H](Cc2ccc(O)cc2)C(=O)N[C@H](C(=O)N[C@@H](Cc2ccccc2)C(N)=O)C(C)C)NC(=O)[C@H](Cc2c[nH]c4ccccc24)NC(=O)[C@H](CCCCN)NC(=O)[C@H](Cc2c[nH]cn2)NC(=O)[C@H]([C@@H](C)O)NC(=O)[C@H](CCCNC(=N)N)NC(=O)[C@H](CO)NC3=O)NC(=O)[C@H](CCCCN)NC(=O)[C@H](CC(=O)O)NC(=O)[C@H](CC(N)=O)NC(=O)[C@H](CC(=O)O)NC(=O)[C@@H]2CCCN2C1=O [compound 665]
IC50 (hNav1.5; [1]): > 5 µM | IC50 (hNav1.7; [2]): 0.23 µM | IC50 (hNav1.3; [3]): 0.03 µM

CC[C@H](C)[C@@H]1NC(=O)[C@@H]2CSSC[C@@H]3NC(=O)[C@H](C(C)C)NC(=O)[C@H](CC(C)C)NC(=O)[C@H](CC(N)=O)NC(=O)[C@@H]4CCCN4C(=O)[C@H](CCCNC(=N)N)NC(=O)[C@H](CSSC[C@H](NC(=O)[C@@H](N)CC(=O)O)C(=O)N[C@@H](CC(C)C)C(=O)NCC(=O)N[C@@H](Cc4ccccc4)C(=O)N[C@@H](CCSC)C(=O)N[C@@H](CCCNC(=N)N)C(=O)N[C@@H](CCCCN)C(=O)N2)NC(=O)[C@H](CSSC[C@@H](C(=O)N[C@@H](CCCCN)C(=O)N[C@@H](Cc2ccc(O)cc2)C(=O)N[C@H](C(=O)N[C@@H](Cc2ccccc2)C(N)=O)C(C)C)NC(=O)[C@H](CCCNC(=N)N)NC(=O)[C@H](CCCCN)NC(=O)[C@H](Cc2cnc[nH]2)NC(=O)[C@H]([C@@H](C)O)NC(=O)[C@H](CCCNC(=N)N)NC(=O)[C@H](CO)NC3=O)NC(=O)[C@H](CCCCN)NC(=O)[C@H](CC(=O)O)NC(=O)[C@H](CC(N)=O)NC(=O)[C@H](CC(=O)O)NC(=O)[C@@H]2CCCN2C1=O [compound 104] (H-DCLGFMRKCIPDNDKCCRPNLVCSRTHKRCKYVF-NH2; disulfide 2-17, 9-23, 16-30)
IC50 (hNav1.5; Table 24, use, […]): 18.8 µM | IC50 (hNav1.7; Table 24, use, […]): 9.73 µM | IC50 (hNav1.3; Table 24, use, […]): 11.4 µM

CC[C@@H]1NC(=O)CNC(=O)[C@H](CC(C)C)NC(=O)[C@@H](NC(=O)[C@@H](N)CC(=O)O)CSSC[C@@H]2NC(=O)[C@@H]3CSSC[C@@H](C(=O)N[C@@H](CCCCN)C(=O)N[C@@H](Cc4ccc(O)cc4)C(=O)N[C@H](C(=O)N[C@@H](Cc4ccccc4)C(N)=O)C(C)C)NC(=O)[C@H](Cc4c[nH]c5ccccc45)NC(=O)[C@H](CCCCN)NC(=O)[C@H](Cc4c[nH]cn4)NC(=O)[C@H]([C@@H](C)O)NC(=O)[C@H](CCCNC(=N)N)NC(=O)[C@H](CO)NC(=O)[C@H](CSSC[C@H](NC(=O)[C@H](CCCCN)NC(=O)[C@H](CCCNC(=N)N)NC(=O)[C@H](CC(C)C)NC1=O)C(=O)N[C@@H]([C@@H](C)CC)C(=O)N1CCC[C@H]1C(=O)N[C@@H](CC(=O)O)C(=O)N[C@@H](CC(N)=O)C(=O)N[C@@H](CC(=O)O)C(=O)N[C@@H](CCCCN)C(=O)N3)NC(=O)[C@H](C(C)C)NC(=O)[C@H](CC(C)C)NC(=O)[C@H](CC(N)=O)NC(=O)[C@@H]1CCCN1C(=O)[C@H](CCCNC(=N)N)NC2=O [compound 636]
IC50 (hNav1.5; [1]): 16.7 µM | IC50 (hNav1.7; [2]): 0.29 µM | IC50 (hNav1.3; [3]): 1 µM

CC[C@H](C)[C@@H]1NC(=O)[C@@H]2CSSC[C@@H]3NC(=O)[C@H](C(C)C)NC(=O)[C@H](CC(C)C)NC(=O)[C@H](CC(N)=O)NC(=O)[C@@H]4CCCN4C(=O)[C@H](CCCNC(=N)N)NC(=O)[C@H](CSSC[C@H](NC(=O)[C@@H](N)CC(=O)O)C(=O)N[C@@H](CC(C)C)C(=O)NCC(=O)N[C@@H](Cc4ccccc4)C(=O)N[C@@H](CCSC)C(=O)N[C@@H](CCCNC(=N)N)C(=O)N[C@@H](CCCCN)C(=O)N2)NC(=O)[C@H](CSSC[C@@H](C(=O)N[C@@H](CCCCN)C(=O)N[C@@H](Cc2ccc(O)cc2)C(=O)N[C@H](C(=O)N[C@@H](Cc2ccccc2)C(N)=O)C(C)C)NC(=O)[C@H](Cc2c[nH]c4ccccc24)NC(=O)[C@H](CCCCN)NC(=O)[C@H](Cc2cccc4ccccc24)NC(=O)[C@H]([C@@H](C)O)NC(=O)[C@H](CCCNC(=N)N)NC(=O)[C@H](CO)NC3=O)NC(=O)[C@H](CCCCN)NC(=O)[C@H](CC(=O)O)NC(=O)[C@H](CC(N)=O)NC(=O)[C@H](CC(=O)O)NC(=O)[C@@H]2CCCN2C1=O [compound 166] (H-DCLGFMRKCIPDNDKCCRPNLVCSRT[1Nal]KWCKYVF-NH2; disulfide 2-17, 9-23, 16-30)
IC50 (hNav1.5; Table 23, use, […]): 0.88 µM | IC50 (hNav1.7; Table 23, use, […]): 0.3 µM | IC50 (hNav1.3; Table 23, use, […]): 0.43 µM
